Experimental data taken from patent EP4417602A1, “SUBSTITUTED PYRAZOLE CARBOXAMIDES, SALTS THEREOF AND THEIR USE AS HERBICIDALLY ACTIVE SUBSTANCES” (Bayer AG, priority 2023, dated 2024).

Legend:
LOLRI [1] = experiment: C. Herbicidal pre-emergence action, weed and crop plants (Tables C); format: in vivo, Lolium rigidum; settings: application rate 320 g/ha; Table C7a
From the text: (§1) Seeds of mono- and dicotyledonous weed plants and crop plants were sown, in plastic or organic planting pots, in sandy loam and covered with soil. The compounds according to the invention, formulated in the form of wettable powders (WP) or as emulsifiable concentrates (EC), were applied to the surface of the covering soil as aqueous suspension or emulsion, with the addition of 0.5% of an additive, at an application rate of 6001 of water/ha (converted). Following treatment, the pots were placed in a greenhouse and kept under optimum growth conditions for the test plants. The visual grading of the damage to the test plants was carried out after ca. 3 weeks in comparison to untreated controls (herbicidal effect in percent (%): 100% effect = plants have died off, 0% effect = as control plants). Tables C1 to C12 below show the effects of selected compounds of the general formula (I) according to table 1 on various harmful plants and an application rate corresponding to 320 g/ha or below obtained by the experimental procedure mentioned above. Table C1: pre-emergence activity at 320g/ha against KCHSC in %

POAAN = experiment: A. Herbicidal pre-emergence action on harmful plants (Tables A); format: in vivo, Poa annua
In short: (§2)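 Values are visual percent damage relative to untreated controls, scored ca. 3 weeks after the compound was sprayed on the covering soil of sown pots (sandy loam) at rates up to 1280 g/ha, formulated as WP or EC with 0.5% additive.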

ECHCG [2] = experiment: as above; format: in vivo, Echinochloa crus-galli; settings: visual grading after ca. 3 weeks vs untreated controls, 100% = plants have died off, 0% = as control plants
In short: as §2

ECHCG [3] = experiment: B. Herbicidal post-emergence action on harmful plants (Tables B); format: in vivo, Echinochloa crus-galli
In short: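 Greenhouse weeds grown in sandy loam were sprayed post-emergence at the one-leaf stage, 2-3 weeks after sowing. Compounds were applied as WP or EC in water with 0.5% additive at 600 L/ha, at 1280 g/ha or below. Visual damage was rated after about 3 weeks versus untreated plants (0-100%).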

SETVI = experiment: C. Herbicidal pre-emergence action, weed and crop plants (Tables C); format: in vivo, Setaria viridis; settings: application rate 320 g/ha; Table C10
From the text: as §1

STEME = experiment: A. Herbicidal pre-emergence action on harmful plants (Tables A); format: in vivo, Stellaria media; settings: visual grading after ca. 3 weeks vs untreated controls, 100% = plants have died off, 0% = as control plants
In short: as §2

ALOMY [4] = experiment: as above; format: in vivo, Alopecurus myosuroides
In short: as §2

MATIN = experiment: as above; format: in vivo, Matricaria inodora; settings: visual grading after ca. 3 weeks vs untreated controls, 100% = plants have died off, 0% = as control plants
In short: as §2

DIGSA = experiment: as above; format: in vivo, Digitaria sanguinalis
In short: as §2

LOLRI [5] = experiment: as above; format: in vivo, Lolium rigidum; settings: visual grading after ca. 3 weeks vs untreated controls, 100% = plants have died off, 0% = as control plants
In short: as §2

ALOMY [6] = experiment: C. Herbicidal pre-emergence action, weed and crop plants (Tables C); format: in vivo, Alopecurus myosuroides
From the text: as §1

GLXMA = experiment: F. Post-emergence effects on crop plants (Tables F); format: in vivo, Glycine max; settings: crop plant
In short: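 Plants were grown in sandy loam in a greenhouse and sprayed post-emergence at the single-leaf stage, 2–3 weeks after sowing. Visual damage was scored after ca. 3 weeks against untreated controls (0% = as control, 100% = dead).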

[7] = application rate 80 g/ha, Table A7c
[8] = application rate 320 g/ha, Table A7b
[9] = application rate 1280 g/ha, visual grading after ca. 3 weeks vs untreated controls, 100% = plants have died off, 0% = as control plants
[10] = application rate 1280 g/ha, Table B2a
[11] = application rate 1280 g/ha, Table A9a
[12] = application rate 320 g/ha, Table A12b
[13] = application rate 1280 g/ha, Table A12a
[14] = application rate 320 g/ha, Table C2a
[15] = application rate 80 g/ha, Table C2b
[16] = application rate 320 g/ha, Table A9b

Row | Structure (SMILES) | pre-emergence activity against LOLRI (LOLRI [1]) | pre-emergence activity against POAAN (POAAN; [7]) | pre-emergence activity against POAAN (POAAN; [8]) | pre-emergence activity against POAAN (POAAN; [9]) | pre-emergence activity against ECHCG (ECHCG [2]; application rate 320 g/ha) | pre-emergence activity against ECHCG (ECHCG [2]; application rate 1280 g/ha) | post-emergence activity against ECHCG (ECHCG [3]; [10]) | pre-emergence activity against SETVI (SETVI) | pre-emergence activity against STEME (STEME; application rate 320 g/ha) | pre-emergence activity against STEME (STEME; application rate 1280 g/ha) | pre-emergence activity against ALOMY (ALOMY [4]; [11]) | pre-emergence activity against MATIN (MATIN; application rate 1280 g/ha) | pre-emergence activity against DIGSA (DIGSA; [12]) | pre-emergence activity against DIGSA (DIGSA; [13]) | pre-emergence activity against LOLRI (LOLRI [5]; application rate 320 g/ha) | pre-emergence activity against LOLRI (LOLRI [5]; application rate 1280 g/ha) | pre-emergence activity against ALOMY (ALOMY [6]; [14]) | post-emergence activity against GLXMA in % (GLXMA; application rate 80 g/ha) | pre-emergence activity against ALOMY (ALOMY [4]; [16]) | post-emergence activity against GLXMA in % (GLXMA; application rate 320 g/ha) | also measured
1 | C=C(c1ccccc1F)C1CCCN1C(=O)c1cn(C)nc1COC (racemic) [Example I-023] | 100% | 100% | 100% | 100% | 90% | 100% | 90% | 90% | 90% | 90% | 90% | 90% | 90% | 90% | 100% | 100% | 100% | – | – | – | pre-emergence activity against MATIN (MATIN; application rate 320 g/ha): 90%
2 | COCc1c(C(=O)N2CCCC2Cc2ccccc2Cl)cnn1C (racemic) [Example I-170] | 90% | 100% | 100% | 100% | 90% | 90% | 90% | – | – | – | 90% | 90% | – | – | 90% | 90% | 90% | 10% | – | – | pre-emergence activity against ECHCG (ECHCG [2]; application rate 80 g/ha): 90%; post-emergence activity against ECHCG (ECHCG [3]; application rate 320 g/ha, Table B2b): 90%; pre-emergence activity against ALOMY (ALOMY [6]; [15]): 90%
3 | COCc1c(C(=O)N2CCCC2Cc2ccccc2F)cnn1C (single isomer, unassigned) [Example I-157] | 90% | 100% | 100% | 100% | 100% | 100% | – | – | 90% | 100% | 100% | 90% | 100% | 100% | 90% | 90% | 90% | – | 100% | 0% | pre-emergence activity against ECHCG (ECHCG [2]; application rate 80 g/ha): 100%; pre-emergence activity against DIGSA (DIGSA; application rate 80 g/ha, Table A12c): 100%
4 | Cn1cc(C(=O)N2CCCC2Cc2ccc(F)cc2F)c(COc2ccccc2)n1 (racemic) [Example I-008] | – | 100% | 100% | 100% | – | 90% | – | 90% | – | 90% | 100% | 90% | 90% | 100% | – | – | 100% | – | 100% | 0% | –
5 | Cn1cc(C(=O)N2CCCC2Cc2ccccc2F)c(COc2ccccc2)n1 (racemic) [Example I-006] | – | 100% | 100% | 100% | – | 90% | 100% | – | 90% | 90% | 100% | 90% | 90% | 100% | – | 90% | 90% | 0% | 90% | – | –
6 | COCc1nn(C(=O)OC(C)(C)C)cc1C(=O)N1CCCC1Cc1ccccc1F (racemic) [Example I-040] | 100% | – | 100% | 100% | 90% | 100% | 90% | 80% | 90% | 90% | 90% | 90% | 90% | 100% | 90% | 100% | 80% | 0% | – | – | –
7 | COCc1nn(C)cc1C(=O)N1CCCC1Cc1ccccc1F (racemic) [Example I-002] | 90% | 100% | 100% | 100% | 100% | 100% | 90% | 80% | – | 90% | – | 90% | – | – | 90% | 100% | 90% | 20% | – | – | pre-emergence activity against ECHCG (ECHCG [2]; application rate 80 g/ha): 90%; pre-emergence activity against MATIN (MATIN; application rate 320 g/ha): 90%; pre-emergence activity against LOLRI (LOLRI [5]; application rate 80 g/ha): 90%
8 | COCc1nn2c(c1C(=O)N1CCCC1Cc1ccccc1F)CCC2 (racemic) [Example I-022] | 100% | 90% | 100% | 100% | 90% | 100% | – | – | – | – | 90% | 90% | 90% | 90% | 100% | 100% | – | – | 90% | 0% | –
9 | COCc1nn(C)cc1C(=O)N1CCCC1C(O)c1ccccc1F (single isomer, unassigned) [Example I-053] | 90% | – | 90% | 100% | 90% | 90% | 90% | 90% | 90% | 90% | – | 90% | 90% | 90% | 90% | 90% | 90% | – | – | 20% | pre-emergence activity against ALOMY (ALOMY [6]; [15]): 80%
